Assay results taken from patent US20200237700A1, “METHODS OF REDUCING OR PREVENTING OXIDATION OF SMALL DENSE LDL OR MEMBRANE POLYUNSATURATED FATTY ACIDS” (Amarin Pharmaceuticals Ireland Limited, priority 2015, published 2020).
Where “and” joins values, the source holds several entries; their conditions need not be identical. Equal entries are not always repeated.

Columns and labels:
[1] = test system: HUVECs exposed to oxLDL; assay: NO and ONOO− release from HUVECs exposed to oxLDL, nanosensors (Example 8); type: cell-based, human
Method: Human umbilical vein endothelial cells (HUVECs) were isolated into primary cultures from female donors by Clonetics (San Diego, Calif.) and purchased as proliferating cells. All cell culture donors were healthy, with no pregnancy or prenatal complications. […] The confluent cells (4 to 5×10^5 cells/35 mm dish) were placed with minimum essential medium containing 3 mM L-arginine and 0.1 mM BH4 [(6R)-5,6,7,8-tetrahydrobiopterin]. Before experimental use, the cells (from second or third passage) were rinsed twice with Tyrode-HEPES buffer with 1.8 mM CaCl2.
The omega-3 fatty acids (O3FAs) cis-5,8,11,14,17-eicosapentaenoic acid (EPA) and docosahexaenoic acid (DHA) were purchased from Sigma-Aldrich (St. Louis, Mo.) and prepared initially at 11 mM in redistilled ethanol. Primary and secondary O3FA stock solutions were prepared and stored under argon at −20° C. […]
Oxidation was monitored by the use of measurements of TBARS. […] TBARS concentration was determined as malondialdehyde (MDA) equivalents with the use of an MDA standard curve. […]
The amperometric method (with a response time of 0.1 ms) provides a quantitative signal (current) that is directly proportional to changes (from basal levels) in NO or ONOO^− concentration. […] Basal NO or ONOO^− levels were measured by differential pulse voltammetry in separate experiments. […]

[2] = Small angle x-ray diffraction of cholesterol-enriched POPC model membranes, cholesterol domain peak intensity (Example 9); type: physicochemical
Method: The fatty acid stock solutions were stored at −20° C. until use. […] Samples were shell-dried under nitrogen gas and placed under vacuum for 3 hours to remove residual solvent at room temperature. After desiccation, each sample was resuspended in saline buffer (0.5 mM HEPES, 154 mM NaCl, pH 7.3) to yield a final phospholipid concentration of 2.5 mg/mL. Lipid suspensions were then vortexed for 3 minutes at ambient temperature to form MLVs. Membrane lipid vesicles were oriented for x-ray diffraction analysis as described by others (e.g., Herbette et al., Biophys. […] Briefly, a 100 μL aliquot of each MLV preparation (containing 250 μg MLV) was transferred to a Lucite® sedimentation cell fitted with an aluminum foil substrate designed to collect MLVs into a single membrane pellet upon centrifugation. […] After centrifugal orientation, sample supernatants were aspirated and aluminum foil substrates, each supporting a single membrane pellet, were removed from the sedimentation cells. Sample pellets were dried for 5-10 minutes at ambient conditions, mounted onto curved glass supports, and placed in hermetically-sealed, brass or glass containers (for immediate analysis or temporary storage, respectively). All x-ray diffraction experiments were conducted at 20° C., 74% relative humidity. The latter was established by exposing membrane samples to saturated solutions of L-(+)-tartaric acid (K2C4H4O6.½H2O) for at least 1 hour prior to experimental analysis. Oriented membrane samples were aligned at grazing incidence with respect to a collimated, mono-chromatic CuKα x-ray beam (Kα1 and Kα2 unresolved; λ=1.54 Å) produced by a Rigaku Rotaflex RU-200, high-brilliance microfocus generator (Rigaku-MSC, The Woodlands, Tex.) as previously described (Mason et al., Biophys. J., vol. 55(4), pages 769-778 (1989)). The samples were initially subjected to x-ray diffraction analysis at least 12 hours after formation of the membrane pellets and retested for up to several days. […] Collimation of the x-ray beam was achieved using a single Franks mirror. Diffraction data were collected on a one-dimensional, position-sensitive electron detector (Hecus X-ray Systems, Graz, Austria) at a sample-to-detector distance of 150 mm from the sample site. […] Routines written in Origin 8.6 (OriginLab Corporation, Northampton, Mass.) were used to determine total peak area (associated with all diffraction peaks in a given pattern) against which the second-order cholesterol domain peak was normalized. […] Differences between groups were analyzed using the two-tailed, Student's t-test (for comparisons between only two groups) or ANOVA followed by Dunnett or Student-Newman-Keuls multiple comparisons post-hoc analysis (for comparisons between three or more groups). […]

[3] = test system: human sdLDL; assay: Copper-induced sdLDL oxidation, TBARS (Example 7); type: biochemical
Method: (§1) An experiment to study the antioxidant effect of EPA in LDL and small dense […] performed. […] Fenofibrate, gemfibrozil, and niacin were purchased from Sigma-Aldrich. […] Vitamin E was also incubated with sample aliquots as a positive control.

[4] = test system: human LDL (unfractionated); assay: Copper-induced unfractionated LDL oxidation, TBARS 1 hr (Example 7); type: biochemical; settings: 10 μM
Method: as §1

[5] = test system: sdLDL isolated from human subjects under hyperglycemia; assay: Glucose-induced sdLDL oxidation, TBARS/MDA (Example 10); type: biochemical; settings: 10.0 μM; glucose 200 mg/dL
Method: Vitamin E (α-tocopherol) purchased from Sigma-Aldrich was prepared in ethanol at 1.0 mM (c=3.06×10^4 M^−1 cm^−1 at 294 nm) prior to experimental use. Test compounds were further diluted in ethanol or aqueous buffer as needed. Phosphate Buffered Saline (PBS) purchased from Sigma-Aldrich was prepared in double distilled water at 10 mM (138 mM NaCl, 2.7 mM KCl, pH 7.4). […] Lipid oxidation was measured by the colorimetric detection of malondialdehyde (MDA), a marker of oxidative stress. Data were presented as mean±SD for (n) separate samples or experiments. Differences between groups were analyzed using the unpaired, two-tailed Student's t-test (for comparisons between only two groups) or ANOVA followed by Student-Newman-Keuls multiple comparisons post hoc analysis (for comparisons between three or more groups).

[6] = EPA to phospholipid 1:30 (Table 3)

SMILES	increased NO release ([1]; ECs exposed to oxLDL, as compared to vehicle) [%]	% Change (vs. Control) [2, 6] [%]	Relative Cholesterol Domain Peak Intensity [2, 6]	sdLDL oxidation after 4 hours as compared to vehicle or DHA ([3]; 10.0 μM, 4 hours)	inhibition of sdLDL oxidation vs vehicle ([3]; each agent at 1.0 μM, 1 hr) [%]	inhibited TBARS formation / sdLDL oxidation vs vehicle ([3]; each agent at 10 μM, 1 hr)	inhibited TBARS formation compared to vehicle-treated control ([4]; unfractionated LDL) [%]	inhibited sdLDL oxidation as compared to vehicle controls [5] [%]	sdLDL oxidation (formation of MDA) [5] [µM]	NO/ONOO− Ratio ([1]; oxLDL 20 min, then treatment 1 hour, EPA 10 μM, ATM 1.0 μM)	effect on cholesterol domains / domain size ([2]; drug-to-phospholipid mole ratio 1:30)	effect on sdLDL oxidation as compared to vehicle-treated controls ([3]; 10 μM, 1 hour)	effect on unfractionated LDL oxidation as compared to vehicle-treated controls [4]	glucose-induced sdLDL oxidation [5]
CC/C=C\C/C=C\C/C=C\C/C=C\C/C=C\CCCC(=O)O [EPA, cis-5,8,11,14,17-eicosapentaenoic acid]	45	−65.5 ± 17.1	14.6 ± 5.0	significantly inhibited sdLDL oxidation	19±8	93±2% and 92±8%	> 90	94	0.2 ± 0.1	–	–	–	–	–
O=C(O)c1cccnc1 [niacin, nicotinic acid]	–	–	–	–	–	–	–	–	–	2.00 ± 0.52	no significant changes in cholesterol domain size	no significant effect	no significant effect	did not inhibit glucose-induced sdLDL oxidation
